Test results published in PubChem BioAssay (NCI).
“And” between values parts separate entries of the source, which are not always exact repeats. Equal entries are not always repeated.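 Cultured in 96-well plates, cells were exposed to test compound for 48 hours across five concentrations. Abbreviation: GI50, concentration required for 50% inhibition of growth. TGI denotes the concentration required for complete inhibition of growth.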

Key:
Assay in all cases: NCI-60 cell line screen, 48 h
M14 melanoma = tested on: M14 melanoma
MALME-3M melanoma = tested on: MALME-3M melanoma
MOLT-4 leukemia = tested on: MOLT-4 leukemia
RPMI-8226 leukemia = tested on: RPMI-8226 leukemia
SF-295 CNS = tested on: SF-295 CNS
SK-MEL-2 melanoma = tested on: SK-MEL-2 melanoma
SNB-19 CNS = tested on: SNB-19 CNS
TK-10 renal = tested on: TK-10 renal
OVCAR-3 ovarian = tested on: OVCAR-3 ovarian
MDA-MB-231 breast = tested on: MDA-MB-231 breast

Row | SMILES | TGI (M14 melanoma) | TGI (MALME-3M melanoma) | TGI (MOLT-4 leukemia) | TGI (RPMI-8226 leukemia) | TGI (SF-295 CNS) | TGI (SK-MEL-2 melanoma) | TGI (SNB-19 CNS) | TGI (TK-10 renal) | TGI (OVCAR-3 ovarian) | GI50 (M14 melanoma) | GI50 (MALME-3M melanoma) | GI50 (MDA-MB-231 breast) | TGI (MDA-MB-231 breast) | GI50 (OVCAR-3 ovarian) | GI50 (SF-295 CNS) | GI50 (SK-MEL-2 melanoma) | GI50 (SNB-19 CNS) | GI50 (TK-10 renal) | GI50 (MOLT-4 leukemia) | GI50 (RPMI-8226 leukemia)
1 | C=CCNC(=S)OCCCCCCCCCC | 32.7 µM | 33.8 µM | 34.6 µM | 38.9 µM | 34.5 µM | 24.8 µM | 83.9 µM | 24.1 µM |  |  |  |  |  |  |  |  |  |  |  | 
2 | O=C1c2ccccc2C2(O)Oc3cccc(O)c3C12O (configuration not stated) | > 100 µM | > 100 µM | > 100 µM | > 100 µM | > 100 µM | > 100 µM | > 100 µM | > 100 µM | > 100 µM |  |  |  |  |  |  |  |  |  |  | 
3 | Cc1ccc([Se][Se]c2ccc(C)cc2)cc1 |  | > 100 µM | > 100 µM | 31.8 µM | 61.6 µM | > 100 µM | > 100 µM | > 100 µM | > 100 µM |  |  |  |  |  |  |  |  |  |  | 
4 | COC(=O)C(=O)C(C#N)c1ccc(Cl)c(Cl)c1 (configuration not stated) | > 100 µM | > 100 µM | > 100 µM | > 100 µM | > 100 µM | > 100 µM |  | > 100 µM | > 100 µM |  |  |  |  |  |  |  |  |  |  | 
5 | COC(=O)c1ccccc1N=Cc1ccc(N(CCC#N)S(=O)(=O)c2ccccc2)cc1 | > 100 µM | > 100 µM | > 100 µM | > 100 µM | > 100 µM | > 100 µM | > 100 µM | > 100 µM | > 100 µM |  |  |  |  |  |  |  |  |  |  | 
6 | O=C1NC(=S)NC(=O)C1=Cc1ccc2ccccc2n1 | > 100 µM | > 100 µM | > 100 µM | > 100 µM | > 100 µM | > 100 µM | > 100 µM | > 100 µM | > 100 µM |  |  |  |  |  |  |  |  |  |  | 
7 | COc1cc(C(CC(OC)OC)=C(C#N)C#N)cc(OC)c1OC |  | 76.9 µM | 33.9 µM |  | 62.9 µM | 49.4 µM | > 100 µM | > 100 µM | 73 µM |  |  |  |  |  |  |  |  |  |  | 
8 | CN1c2ccccc2C(C)(C)C12CC(c1ccc(Cl)c(S(=O)(=O)N3CCCC3)c1)=NO2 (configuration not stated) | > 100 µM | > 100 µM |  |  | > 100 µM | > 100 µM | > 100 µM | > 100 µM | > 100 µM | > 100 µM | > 100 µM | > 100 µM | > 100 µM | > 100 µM | > 100 µM | > 100 µM | > 100 µM | > 100 µM |  | 
9 | CCOC(=O)CN(Cc1ccccc1)Cc1c(C(=O)c2ccccc2)c2ccccc2n1C(=O)c1ccccc1 | > 100 µM | > 100 µM | > 100 µM | > 100 µM | > 100 µM | > 100 µM | > 100 µM | > 100 µM | > 100 µM |  |  |  |  |  |  |  |  |  |  | 
10 | C=C(C(=O)OC)[C@@H]1C[C@@H](O)[C@]2(C)CC/C=C(\C)CCC[C@H](C)[C@H](O)C1O2 | > 100 µM |  | 46.5 µM | 59 µM | > 100 µM | > 100 µM | > 100 µM | 48.8 µM | 92.7 µM | 44 µM |  | 58.5 µM | > 100 µM | 31.3 µM | 83.8 µM | 48.5 µM | 79.3 µM | 19.6 µM | 18.7 µM | 27.6 µM
11 | COc1ccc2c(c1)C(=O)c1c-2n(CCCCl)c(=O)c2cc(N(C)C)ccc12 | > 100 µM | > 100 µM | > 100 µM |  | > 100 µM | > 100 µM | > 100 µM | > 100 µM | > 100 µM | > 100 µM | 63.8 µM | 21.8 µM | 81 µM | > 100 µM | > 100 µM | > 100 µM | 56.4 µM | 30.9 µM | > 100 µM | 
12 | Oc1ccccc1C=Nc1ccccc1N=Cc1ccccc1O | > 100 µM | > 100 µM | > 100 µM | > 100 µM | > 100 µM |  | > 100 µM | > 100 µM | > 100 µM |  |  |  |  |  |  |  |  |  |  | 
13 | Cc1cccc(N2C(=O)C(=O)C(c3nc4ccccc4s3)C(=O)C2=O)c1C | > 100 µM | > 100 µM | > 100 µM | > 100 µM | > 100 µM | > 100 µM | > 100 µM | > 100 µM | > 100 µM |  |  |  |  |  |  |  |  |  |  | 
14 | Cc1nn(C)c(=S)n(C)c1=O | > 100 µM | 37.2 µM | > 100 µM | 14.8 µM | > 100 µM | 34.8 µM | 41 µM | 26.2 µM | > 100 µM |  |  |  |  |  |  |  |  |  |  | 
15 | Cc1nn(C)c(=O)c2nn(-c3ccccc3)c(C)c12 | > 100 µM | > 100 µM | > 100 µM | > 100 µM | > 100 µM | > 100 µM | > 100 µM | > 100 µM | > 100 µM |  |  |  |  |  |  |  |  |  |  | 
16 | O=C1CCC2CCOc3ccc(O)c1c32 (configuration not stated) | > 100 µM | > 100 µM | > 100 µM | > 100 µM | > 100 µM | > 100 µM | > 100 µM | > 100 µM | > 100 µM |  |  |  |  |  |  |  |  |  |  | 
17 | O=C(O/N=C1/CCCC/C1=C\c1ccccc1)c1ccc(Cl)cc1 | > 100 µM | > 100 µM |  | > 100 µM | > 100 µM | > 100 µM | > 100 µM | > 100 µM | > 100 µM |  |  |  |  |  |  |  |  |  |  | 
18 | C1C[OH+]CC[OH+]CC[OH+]CC[OH+]CC[OH+]CC[OH+]1.[Cl-].[Ta+5] | > 100 µM | > 100 µM | > 100 µM | > 100 µM | > 100 µM | > 100 µM | > 100 µM | > 100 µM | > 100 µM | > 100 µM | > 100 µM |  |  | > 100 µM | > 100 µM | > 100 µM | 24.3 µM | > 100 µM | > 100 µM | > 100 µM
19 | O=C(/C=C/c1ccc(Cl)cc1)c1ccncc1 | > 100 µM | > 100 µM | 60.3 µM | > 100 µM | > 100 µM | > 100 µM | > 100 µM | > 100 µM | > 100 µM |  |  |  |  |  |  |  |  |  |  | 
20 | Oc1ccc(SCc2ccc(NCc3ccccc3)cc2)cc1 | 44.5 µM | > 100 µM | 39.7 µM |  | > 100 µM | 61.1 µM | 64.8 µM | > 100 µM | > 100 µM |  |  |  | > 100 µM |  |  |  |  |  |  | 
21 | CCCCCCCCCC(=O)N[C@H]1CCc2cc(OC)c(OC)c(OC)c2-c2ccc(SC)c(=O)cc21 |  |  | > 100 µM |  |  |  | 75 µM | 25.5 µM | 0.0477 µM and 0.03 µM |  |  |  |  |  |  |  |  |  |  | 
22 | O=c1c2cccnc2ncn1CCCN1CCOCC1 | > 100 µM | > 100 µM |  |  | > 100 µM |  | > 100 µM | > 100 µM | > 100 µM |  |  |  |  |  |  |  |  |  |  | 
